# “Also recorded” adds a separate entry of the source.
# Columns and labels:
# elastase = biological target: T1, elastase (Sus scrofa, UniProt P00772); test: Elastase inhibition assay (N-succinyl-Ala-Ala-Ala-p-nitroanilide); type: biochemical; settings: for Elastase inhibitory activity (in words): pure compounds at 25, 100, 250 μM
# T1 construct: purchased Sigma-Aldrich
# Method: Elastase inhibitory activity was measured by the presence of p-nitroaniline, after the reaction of the elastase enzyme with the substrate N-succinyl-Ala-Ala-Ala-p-nitroanilide, using a previously described protocol with minor modifications. At first, 70 μL of Trizma-base buffer (50 mM, pH = 7.5), 10 μL of the tested sample, and 5 μL of elastase solution (0.4725 U/mL dissolved in Trizma-base buffer) were mixed in the 96-well microplate and were incubated for 10 min at 37 °C, avoiding light exposure. Following this procedure, 15 μL of the substrate (2 mM dissolved in Trizma-base buffer) were added to every well of the plate, and then the plate was incubated for 30 min at 37 °C. The presence of p-nitroaniline was measured spectrophotometrically at 405 nm using a Tecan (Infinite 200 Pro series, Männedorf, Switzerland). The final tested concentrations of the extracts and pure compounds were 50 μg/mL, 100 μg/mL, 300 μg/mL, and 25 μΜ, 100 μΜ, 250 μΜ, respectively, dissolved in Trizma-base buffer, and the percentage of DMSO was under 5% of the total volume inside the plate. The negative control of the assay was 5% DMSO Trizma-base buffer, and the positive was Elastatinal (IC100 = 5 μg/mL and IC50 = 0.5 μg/mL), a strong irreversible competitive elastase inhibitor. Experiments were performed in triplicate.
# The elastase inhibitory activity was calculated by the following equation:Inhibition (%) = (Abs A − Abs B)/(Abs A) × 100 where Abs A = Abs Control − Abs Control Blank and Abs B = Abs Sample − Abs Sample Blank. Abs Control is the absorbance of Trizma-base Buffer with 5% DMSO, elastase enzyme, and substrate, and Abs Sample is the absorbance of the tested sample in the Trizma-base buffer, elastase enzyme, and substrate. Blanks consist of all the above reagents except the enzyme.
# [1] = DPPH radical scavenging assay; type: biochemical; settings: dissolved in DMSO
# Method: The final tested concentrations of the extracts were 5 μg/mL, 10 μg/mL, 20 μg/mL, 50 μg/mL, 100 μg/mL, 250 μg/mL, and 500 μg/mL dissolved in DMSO. […] Experiments were performed in triplicate. The antioxidant activity was calculated by the following equation:Inhibition (%) = (Abs A − Abs B)/(Abs A) × 100 where Abs A = Abs Control − Abs Control Blank and Abs B = Abs Sample − Abs Sample Blank. Abs Control is the absorbance of the negative control, and Abs Sample is the absorbance of the tested sample. Blanks consist of all the above reagents except the free radical reagent.
# collagenase = test: Collagenase inhibition assay (fluorescent MMP-2 substrate); type: biochemical; settings: for Collagenase inhibition: mean ± SD, n = 3; for Collagenase inhibitory activity (in words): pure compounds at 25, 100, 250 μM
# Method: Collagenase inhibitory activity was determined by a previously described enzymatic method with slight modifications, based on the fluorescence of the MMP-2 substrate after its degradation by collagenase. In a 96-well black microplate, 50 μL of Tris-HCL buffer (10 mM, pH = 7.3), 25 μL of the tested sample (dissolved in Tris-HCL buffer), and 25 μL of collagenase solution (30 μg/mL dissolved in Tris-HCL buffer) were preincubated for 10 min at 37 °C, avoiding light exposure. Afterwards, 25 μL of MMP-2 substrate (50 μM dissolved in Tris-HCL buffer) were added, and the plate was incubated for an additional 30 min at 37 °C in the dark. The fluorescent intensity was measured at an excitation maximum of 320 nm and an emission maximum of 405 nm using a Tecan (Infinite 200 Pro series, Männedorf, Switzerland). Crude extracts were evaluated at 75 μg/mL, 150 μg/mL, and 300 μg/mL and pure compounds at 25 μΜ, 100 μΜ, and 250 μΜ, respectively, dissolved in PBS buffer, while the percentage of DMSO was under 5% of the total volume inside the plate. […] Experiments were performed in triplicate. The collagenase inhibitory activity was calculated by the following equation:Inhibition (%) = (Abs A − Abs B)/(Abs A) × 100 where Abs A = Abs Control − Abs Control Blank and Abs B = Abs Sample − Abs Sample Blank. Abs Control is the absorbance of Tris-HCL buffer with 5% DMSO, collagenase enzyme, and substrate, and Abs Sample is the absorbance of the tested sample in the Tris-HCL buffer, collagenase enzyme, and substrate. Blanks consist of all the above reagents except the enzyme.
# tyrosinase = tyrosinase (Agaricus bisporus, UniProt C7FF04); test: Tyrosinase inhibition assay (L-DOPA, dopachrome at 475 nm); type: biochemical; settings: pure compounds at 25, 100, 250 μM
# [2] = system: human cell lung cancer (NCI-H187) cell line; set-up: method as in PMID 30450973; settings: cited from earlier work
# mushroom tyrosinase = system: mushroom tyrosinase; set-up: method as in PMID 18503477; settings: cited from earlier work
# T1 sequence (P00772 27-266): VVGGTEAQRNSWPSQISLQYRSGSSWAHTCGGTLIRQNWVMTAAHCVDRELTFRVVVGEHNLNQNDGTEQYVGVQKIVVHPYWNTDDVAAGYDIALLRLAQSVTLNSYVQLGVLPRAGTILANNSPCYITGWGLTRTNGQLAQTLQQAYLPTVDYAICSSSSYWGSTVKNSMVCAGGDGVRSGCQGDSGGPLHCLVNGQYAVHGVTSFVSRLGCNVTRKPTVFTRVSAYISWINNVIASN
# tyrosinase, sequence (C7FF04 1-392): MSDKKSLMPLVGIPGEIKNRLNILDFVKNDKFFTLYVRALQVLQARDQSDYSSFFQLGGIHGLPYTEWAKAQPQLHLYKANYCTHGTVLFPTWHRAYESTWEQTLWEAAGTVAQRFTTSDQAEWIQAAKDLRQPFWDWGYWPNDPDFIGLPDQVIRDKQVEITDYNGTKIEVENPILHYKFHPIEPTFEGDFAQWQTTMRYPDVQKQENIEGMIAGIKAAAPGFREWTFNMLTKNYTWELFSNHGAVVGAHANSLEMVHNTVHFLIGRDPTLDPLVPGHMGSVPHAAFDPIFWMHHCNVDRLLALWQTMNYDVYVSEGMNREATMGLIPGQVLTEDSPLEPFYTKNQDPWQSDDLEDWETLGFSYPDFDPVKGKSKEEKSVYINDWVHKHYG
smiles,measurement,setting,value
"CC(C)C[C@H](NC(=O)N[C@H](C(=O)N[C@@H](CCC(N)=O)C(=O)N[C@@H](C)C=O)[C@@H]1CCNC(=N)N1)C(=O)O [Elastatinal, reference compound]",IC50,elastase; positive control,0.975 µM
same,"IC100 (elastase, positive control)",elastase; positive control,5 µg/mL
O=C(O)c1cc(O)c(O)c(O)c1 [Gallic Acid],"IC50 (DPPH, positive control)",[1],100 µg/mL
"COc1ccc2c(ccc3cc(OC)c(O)c(OC)c32)c1 [Compound 2, 3-hydroxy-2,4,7-trimethoxy-phenanthrene]",Collagenase inhibition,collagenase; pure compound at 25 μM,12.62 ± 1.48%
same,Collagenase inhibition,collagenase; pure compound at 100 μM,50.05 ± 2.67%
same,Collagenase inhibition,collagenase; pure compound at 250 μM,72.73 ± 1.38%
same,Collagenase inhibitory activity (in words),collagenase,dose-dependent anti-collagenase activity
"COc1cc2c(c(OC)c1O)-c1c(O)cccc1CC2 [Compound 4, marylaurencinol A]",Collagenase inhibitory activity (in words),collagenase,dose-dependent anti-collagenase activity
"COC1=CC(=O)C2=C(CCc3cccc(O)c32)C1=O [Compound 6, ephemeranthroquinone B]",Collagenase inhibitory activity (in words),collagenase,dose-dependent anti-collagenase activity
"COc1cc(O)cc(CCc2ccc(O)c(OC)c2)c1 [Compound 8, gigantol]",Tyrosinase inhibitory activity (in words),tyrosinase,"important anti-tyrosinase activity; also recorded: moderate, dose-dependent, inhibition activity"
same,Elastase inhibitory activity (in words),elastase,non-active
same,Collagenase inhibitory activity (in words),collagenase,non-active
"COC1=CC(=O)c2c(ccc3cccc(O)c23)C1=O [Compound 5, 5-hydroxy-2-methoxy-1,4-phenanthrenequinone]",Collagenase inhibitory activity (in words),collagenase,dose-dependent anti-collagenase activity
same,cytotoxic activity,[2],cytotoxic activity
"CC(C)C[C@H](NP(=O)(O)O[C@@H]1O[C@@H](C)[C@H](O)[C@@H](O)[C@H]1O)C(=O)N[C@@H](Cc1c[nH]c2ccccc12)C(=O)O [Phosphoramidon, reference compound]",IC50,collagenase; positive control,6.9 µM
"Cc1cc(O)cc(O)c1 [Compound 14, orcinol]",Elastase inhibitory activity (in words),elastase,inactive
same,Collagenase inhibitory activity (in words),collagenase,inactive
"COc1cc2ccc3cccc(O)c3c2c(OC)c1O [Compound 1, bulbophyllanthrin]",Collagenase inhibitory activity (in words),collagenase,dose-dependent anti-collagenase activity
Oc1ccc(/C=C/c2cc(O)cc(O)c2)cc1 [resveratrol],inhibitory effects on mushroom tyrosinase,mushroom tyrosinase,potent inhibitory effects
"COc1cc(CCc2cc(O)cc(O)c2)ccc1O [Compound 9, tristin]",Tyrosinase inhibitory activity (in words),tyrosinase,"important anti-tyrosinase activity; also recorded: moderate, dose-dependent, inhibition activity"
same,Elastase inhibitory activity (in words),elastase,non-active
same,Collagenase inhibitory activity (in words),collagenase,non-active

# — PMC8772768, “Phytochemical Analysis and Dermo-Cosmetic Evaluation of Cymbidium sp. (Orchidaceae) Cultivation By-Products” (Antioxidants, 2021)
